# Data reported in patent US20220089575A1, “FARNESOID X RECEPTOR AGONISTS AND USES THEREOF” (Metacrine, Inc., priority 2017, published 2022).
# Target: T1, hFXR (Homo sapiens, UniProt Q96RI1)
# T1 construct: expressed in transfected cells; host or cells: CV-1 cells
# T1 sequence (Q96RI1 1-486): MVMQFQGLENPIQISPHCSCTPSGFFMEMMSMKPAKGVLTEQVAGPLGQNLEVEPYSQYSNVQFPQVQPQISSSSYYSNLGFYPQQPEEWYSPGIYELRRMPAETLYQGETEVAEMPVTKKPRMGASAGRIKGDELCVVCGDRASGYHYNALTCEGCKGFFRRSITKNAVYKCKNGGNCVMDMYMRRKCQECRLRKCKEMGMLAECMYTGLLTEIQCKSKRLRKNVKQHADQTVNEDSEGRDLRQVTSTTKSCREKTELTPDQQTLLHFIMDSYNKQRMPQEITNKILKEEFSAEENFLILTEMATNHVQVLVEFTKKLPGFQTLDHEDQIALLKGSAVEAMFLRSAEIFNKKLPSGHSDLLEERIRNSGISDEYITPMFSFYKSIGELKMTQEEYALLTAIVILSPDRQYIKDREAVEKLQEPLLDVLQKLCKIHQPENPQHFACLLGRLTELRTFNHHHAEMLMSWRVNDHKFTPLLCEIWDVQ
# T1 sequence (P19793 1-462 partner): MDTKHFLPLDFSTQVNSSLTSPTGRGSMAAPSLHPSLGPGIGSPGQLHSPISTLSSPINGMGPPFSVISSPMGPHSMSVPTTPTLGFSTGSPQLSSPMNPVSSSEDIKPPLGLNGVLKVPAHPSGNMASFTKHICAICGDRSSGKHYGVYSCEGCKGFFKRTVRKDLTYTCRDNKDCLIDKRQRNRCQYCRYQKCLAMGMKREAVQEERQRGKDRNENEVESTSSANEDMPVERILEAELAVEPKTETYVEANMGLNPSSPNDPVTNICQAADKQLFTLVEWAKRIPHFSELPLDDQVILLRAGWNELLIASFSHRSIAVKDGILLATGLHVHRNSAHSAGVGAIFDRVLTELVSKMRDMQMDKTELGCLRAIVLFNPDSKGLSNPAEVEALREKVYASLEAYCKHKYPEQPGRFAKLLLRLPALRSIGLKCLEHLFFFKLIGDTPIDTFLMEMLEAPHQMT
# Assay: In Vitro FXR Assay (TK): TK-ECRE-luc reporter in transfected CV-1 cells
# Format: cell-based
# Settings: 18 hrs, luminescence, maximum efficacy of <25% of the Fexarmine control classified as '+'
# How it was run: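 CV-1, transient co-transfection: hFXR + hRXR + TK-ECRE-luc + pCMX-YFP; charcoal-stripped serum. 18 h post-transfection, DMSO serial dilutions of cpd added; 18 h incubation; lysis, luminescence.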
row,EC50 [nM],Compound
1,≤ 250,"COc1ccc([C@H]2CC[C@H](CN(c3cc(-c4coc(C5CC5)n4)ccn3)C(=O)[C@H]3CC[C@H](OC(=O)N4CC(N5CC(O)C5)C4)CC3)CC2)nc1C [Compound 7.108, trans-4-((4-(2-Cyclopropyloxazol-4-yl)pyridin-2-yl)((trans-4-(5-methoxy-6-methylpyridin-2-yl)cyclohexyl)methyl)carbamoyl)cyclohexyl 3-hydroxy-[1,3′-biazetidine]-1′-carboxylate]"
2,≥ 1000,"COc1ncc(-c2cccc(N(C[C@H]3CC[C@H](c4ccc(OC)c(C)c4)CC3)C(=O)[C@H]3CC[C@H](CN)CC3)c2)s1 [Compound 25.03, trans-4-(Aminomethyl)-N-((trans-4-(4-methoxy-3-methylphenyl)cyclohexyl)methyl)-N-(3-(2-methoxythiazol-5-yl)phenyl)cyclohexanecarboxamide]"
3,≤ 250,"COc1ccc([C@H]2CC[C@H](CN(c3cccc(-c4cnc(C5CC5)s4)c3)C(=O)[C@H]3CC[C@H](C(=O)OC)CC3)CC2)cc1C [Compound 18.06, trans-Methyl 4-((3-(2-cyclopropylthiazol-5-yl)phenyl)((trans-4-(4-methoxy-3-methylphenyl)cyclohexyl)methyl)carbamoyl) cyclohexanecarboxylate]"
4,≤ 250,"CNC(=O)O[C@H]1CC[C@H](C(=O)N(C[C@H]2CC[C@H](c3ccc(OC)c(C)n3)CC2)c2cc(-c3cnn(C(C)C)c3)ccn2)CC1 [Compound 5.24, trans-4-((4-(1-Isopropyl-1H-pyrazol-4-yl)pyridin-2-yl)((trans-4-(5-methoxy-6-methylpyridin-2-yl)cyclohexyl)methyl)carbamoyl)cyclohexyl methylcarbamate]"
5,≤ 250,"CNC(=O)O[C@H]1CC[C@H](C(=O)N(C[C@H]2CC[C@H](c3ccc(OC)c(C)n3)CC2)c2cc(-c3cnn(C4CC4)c3)ccn2)CC1 [Compound 5.13, trans-4-((4-(1-Cyclopropyl-1H-pyrazol-4-yl)pyridin-2-yl)((trans-4-(5-methoxy-6-methylpyridin-2-yl)cyclohexyl)methyl)carbamoyl)cyclohexyl methylcarbamate]"
6,≤ 250,"COc1ccc(C23CCC(CN(c4cccc(-c5cnn(C6CC6)c5)c4)C(=O)[C@H]4CC[C@H](C(=O)O)CC4)(CC2)CC3)cc1C [Compound 17.17, trans-4-((3-(1-Cyclopropyl-1H-pyrazol-4-yl)phenyl)((4-(4-methoxy-3-methylphenyl)bicyclo[2.2.2]octan-1-yl)methyl)carbamoyl) cyclohexanecarboxylic acid]"
7,≤ 250,"COc1ccc([C@H]2CC[C@H](CN(c3cccc(-c4cnc(C5CC5)s4)c3)C(=O)[C@H]3CC[C@H](OC(=O)NCCO)CC3)CC2)nc1C [Compound 6.07, trans-4-((3-(2-Cyclopropylthiazol-5-yl)phenyl)((trans-4-(5-methoxy-6-methylpyridin-2-yl)cyclohexyl)methyl)carbamoyl)cyclohexyl (2-hydroxyethyl)carbamate]"
8,≤ 250,"COc1ccc([C@H]2CC[C@H](CN(c3cc(-c4coc(C5CC5)n4)ccn3)C(=O)[C@H]3CC[C@H](OC(=O)NC[C@@H](C)O)CC3)CC2)nc1C [Compound 6.95, trans-4-((4-(2-Cyclopropyloxazol-4-yl)pyridin-2-yl)((trans-4-(5-methoxy-6-methylpyridin-2-yl)cyclohexyl)methyl)carbamoyl)cyclohexyl ((R)-2-hydroxypropyl)carbamate]"
9,≤ 250,"COc1ccc([C@H]2CC[C@H](CN(c3cc(-c4cnc(C5CC5)s4)ccn3)C(=O)[C@H]3CC[C@H](CC(=O)O)CC3)CC2)nc1C [Compound 20.04, 2-(trans-4-((4-(2-Cyclopropylthiazol-5-yl)pyridin-2-yl)((trans-4-(5-methoxy-6-methylpyridin-2-yl)cyclohexyl)methyl)carbamoyl)cyclohexyl)acetic acid]"
10,≤ 250,"COc1ccc([C@H]2CC[C@H](CN(c3cccc(-c4cnn(C5CC5)c4)c3)C(=O)[C@H]3CC[C@H](OC(=O)NC4COC4)CC3)CC2)cc1C [Compound 6.24, trans-4-((3-(1-Cyclopropyl-1H-pyrazol-4-yl)phenyl)((trans-4-(4-methoxy-3-methylphenyl)cyclohexyl)methyl)carbamoyl)cyclohexyl oxetan-3-ylcarbamate]"
11,≤ 250,"COc1ccc([C@H]2CC[C@H](CN(c3cccc(-c4cnn(C5CC5)c4)c3)C(=O)[C@H]3CC[C@H](C(=O)O)CC3)CC2)cc1C#N [Compound 17.22, trans-4-(((trans-4-(3-Cyano-4-methoxyphenyl)cyclohexyl)methyl)(3-(1-cyclopropyl-1H-pyrazol-4-yl)phenyl)carbamoyl)cyclohexanecarboxylic acid]"
12,≤ 250,"COc1ccc([C@H]2CC[C@H](CN(c3cccc(-c4cnn(C5CC5)c4)c3)C(=O)[C@H]3CC[C@H](OC(=O)N4CC(S(C)(=O)=O)C4)CC3)CC2)cc1C [Compound 6.29, trans-4-((3-(1-Cyclopropyl-1H-pyrazol-4-yl)phenyl)((trans-4-(4-methoxy-3-methylphenyl)cyclohexyl)methyl)carbamoyl)cyclohexyl 3-(methylsulfonyl)azetidine-1-carboxylate]"
13,≤ 250,"COc1ccc([C@H]2CC[C@H](CN(c3cccc(-c4coc(C(C)C)n4)c3)C(=O)[C@H]3CC[C@H](OC(=O)NCCO)CC3)CC2)nc1C [Compound 6.48, trans-4-((3-(2-Isopropyloxazol-4-yl)phenyl)((trans-4-(5-methoxy-6-methylpyridin-2-yl)cyclohexyl)methyl)carbamoyl)cyclohexyl (2-hydroxyethyl)carbamate]"
14,≤ 250,"COCCNC(=O)O[C@H]1CC[C@H](C(=O)N(C[C@H]2CC[C@H](c3ccc(OC)c(C)c3)CC2)c2cccc(-c3cnn(C4CC4)c3)c2)CC1 [Compound 6.10, trans-4-((3-(1-Cyclopropyl-1H-pyrazol-4-yl)phenyl)((trans-4-(4-methoxy-3-methylphenyl)cyclohexyl)methyl)carbamoyl)cyclohexyl (2-methoxyethyl) carbamate]"
15,≤ 250,"COc1ccc([C@H]2CC[C@H](CN(c3cccc(-c4coc(C5CC5)n4)c3)C(=O)[C@H]3CC[C@H](CC(=O)O)CC3)CC2)cc1C#N [Compound 21.05, 2-(trans-4-(((trans-4-(3-Cyano-4-methoxyphenyl)cyclohexyl)methyl)(3-(2-cyclopropyloxazol-4-yl)phenyl)carbamoyl)cyclohexyl)acetic acid]"
16,≤ 250,"COc1ccc([C@H]2CC[C@H](CN(c3cccc(-c4cnn(C5CC5)c4)c3)C(=O)[C@H]3CC[C@H](OC(=O)N4CC(N(C)C)C4)CC3)CC2)cc1C [Compound 7.27, trans-4-((3-(1-Cyclopropyl-1H-pyrazol-4-yl)phenyl)((trans-4-(4-methoxy-3-methylphenyl)cyclohexyl)methyl)carbamoyl)cyclohexyl 3-(dimethylamino)azetidine-1-carboxylate]"
17,≤ 250,"COc1ccc([C@H]2CC[C@H](CN(c3cccc(-c4cnn(C5CC5)c4)c3)C(=O)[C@H]3CC[C@H](OC(=O)NC4CC4)CC3)CC2)cc1C [Compound 4.08, trans-4-((3-(1-Cyclopropyl-1H-pyrazol-4-yl)phenyl)((trans-4-(4-methoxy-3-methylphenyl)cyclohexyl)methyl)carbamoyl)cyclohexyl cyclopropylcarbamate]"
18,250 to 1000,"COc1ccc([C@H]2CC[C@H](CN(c3cccc(-c4cnc(C5CC5)s4)c3)C(=O)[C@H]3CC[C@H](OCCN(C)C)CC3)CC2)cc1C [Compound 13.05, trans-N-(3-(2-Cyclopropylthiazol-5-yl)phenyl)-4-(2-(dimethylamino)ethoxy)-N-((trans-4-(4-methoxy-3-methylphenyl)cyclohexyl)methyl) cyclohexanecarboxamide]"
19,≤ 250,"COc1ccc([C@H]2CC[C@H](CN(c3cccc(-c4coc(C5CC5)n4)c3)C(=O)[C@H]3CC[C@H](OC(=O)NCCCO)CC3)CC2)nc1C [Compound 6.51, trans-4-((3-(2-Cyclopropyloxazol-4-yl)phenyl)((trans-4-(5-methoxy-6-methylpyridin-2-yl)cyclohexyl)methyl)carbamoyl)cyclohexyl (3-hydroxypropyl)carbamate]"
20,≤ 250,"COc1ccc([C@H]2CC[C@H](CN(c3cccc(-c4cnc(C5CC5)s4)c3)C(=O)[C@H]3CC[C@H](C(=O)O)CC3)CC2)nc1C#N [Compound 17.12, trans-4-(((trans-4-(6-Cyano-5-methoxypyridin-2-yl)cyclohexyl)methyl)(3-(2-cyclopropylthiazol-5-yl)phenyl)carbamoyl) cyclohexanecarboxylic acid]"
